{
  "source": "patent US9266867B2",
  "about": "“Piperidinyl monocarboxylic acids as S1P1 receptor agonists” (BIOPROJET, priority 2011, dated 2016)",
  "note": "Structures can show the parent of a compound that is named as a salt.",
  "data": [
    {"biological_target": "EDG-1 (Homo sapiens, UniProt P21453)", "sequence (P21453 whole entry)": "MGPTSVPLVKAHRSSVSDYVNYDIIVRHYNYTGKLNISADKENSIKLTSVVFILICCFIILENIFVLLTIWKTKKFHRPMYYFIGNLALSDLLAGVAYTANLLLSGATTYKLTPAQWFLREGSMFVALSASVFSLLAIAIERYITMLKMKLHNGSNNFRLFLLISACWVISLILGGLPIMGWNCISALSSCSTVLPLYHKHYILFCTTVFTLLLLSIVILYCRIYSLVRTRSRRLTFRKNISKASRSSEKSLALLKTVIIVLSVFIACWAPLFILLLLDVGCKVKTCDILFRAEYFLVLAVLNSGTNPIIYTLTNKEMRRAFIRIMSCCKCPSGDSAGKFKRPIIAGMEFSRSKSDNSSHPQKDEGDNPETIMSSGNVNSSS", "assay": "35S-GTPγS binding assay, EDG1 (S1P1)", "format": "biochemical", "design": "expressed in transfected cells", "conditions": "Table 1b; read-out: EDG1 EC50", "experimental": "a) 35S-GTPγS Binding Assay GTP-γ-^35S binding was performed using […]15 μg protein of cell membranes suspended in 50 mM tris-HCl pH 7.5 containing 10 mM MgCl2, 100 mM NaCl and 10 μM GDP. The radioligand was 0.025 nM [^35S] GTP-γ-S and non specific binding determined in the presence of 10 μM non-radioactive GTP-γ-S. […] The maximal stimulation elicited by S1P was taken as a reference to define full or partial agonism and calculate the intrinsic activity (i.a.) of compounds.", "units": {"EC50": "nM"}, "values": [
      {"smiles": "CCC1(C(=O)O)CCN(Cc2ccc(-c3noc(-c4ccc(OC(C)C)c(Cl)c4)n3)cc2)CC1", "note": "[Example 48, 1-{4-[5-(3-Chloro-4-isopropoxy-phenyl)-[1,2,4]-oxadiazol-3-yl]-benzyl}-4-ethyl-piperidine-4-carboxylic acid tert-butyl amine salt]", "EC50": "< 10"},
      {"smiles": "COc1ccc(CC2(C(=O)O)CCN(Cc3ccc(-c4noc(-c5ccc(-c6ccccc6)c(Cl)c5)n4)cc3)CC2)cc1", "note": "[Example 51, 1-{4-[5-(2-Chloro-biphenyl-4-yl)-[1,2,4]-oxadiazol-3-yl]-benzyl}-4-(4-methoxy-benzyl)-piperidine-4-carboxylic acid tert-butyl amine salt]", "EC50": "< 1"},
      {"smiles": "CC(C)Cc1ccc(-c2nc(-c3ccc(CN4CCC(C(=O)O)(C(C)C)CC4)cc3)no2)cc1Cl", "note": "[Example 37, 1-{4-[5-(3-Chloro-4-isobutyl-phenyl)-[1,2,4]-oxadiazol-3-yl]-benzyl}-4-isopropyl-piperidine-4-carboxylic acid tert-butyl amine salt]", "EC50": "< 1"},
      {"smiles": "COCC1(C(=O)O)CCN(Cc2ccc(-c3noc(-c4ccc(-c5ccccc5)c(Cl)c4)n3)cc2)CC1", "note": "[Example 29, 1-{4-[5-(2-chlorobiphenyl-4-yl)-[1,2,4]-oxadiazol-3-yl]benzyl}-4-methoxymethylpiperidine-4-carboxylic acid tert-butyl amine salt]", "EC50": "< 1"},
      {"smiles": "CCC1(C(=O)O)CCN(Cc2ccc(-c3noc(-c4ccc(-c5ccccc5)c(Cl)c4)n3)cc2)CC1", "note": "[Example 30, 1-{4-[5-(2-Chlorobiphenyl-4-yl)-[1,2,4]-oxadiazol-3-yl]-benzyl}-4-ethylpiperidine-4-carboxylic acid tert-butyl amine salt]", "EC50": "< 1"},
      {"smiles": "COCCOCC1(C(=O)O)CCN(Cc2ccc(-c3noc(-c4ccc(-c5ccccc5)c(Cl)c4)n3)cc2)CC1", "note": "[Example 19, 1-{4-[5-(2-Chlorobiphenyl-4-yl)-[1,2,4]-oxadiazol-3-yl]-benzyl}-4-(2-methoxyethoxymethyl)piperidine-4-carboxylic acid tert-butyl amine salt]", "EC50": "< 1"},
      {"smiles": "CC(C)Cc1ccc(-c2nc(-c3ccc(CN4CCC(Cc5ccccc5F)(C(=O)O)CC4)cc3)no2)cc1Cl", "note": "[Example 26, 1-{4-[5-(3-Chloro-4-isobutyl-phenyl)-[1,2,4]-oxadiazol-3-yl]-benzyl}-4-(2-fluoro-benzyl)-piperidine-4-carboxylic acid tert-butyl amine salt]", "EC50": "< 1"},
      {"smiles": "CCCc1ccc(-c2nc(-c3ccc(CN4CCC(C)(C(=O)O)CC4)cc3)no2)cc1Cl", "note": "[Example 46, 1-{4-[5-(3-Chloro-4-propyl-phenyl)-[1,2,4]-oxadiazol-3-yl]-benzyl}-4-methyl-piperidine-4-carboxylic acid tert-butyl amine salt]", "EC50": "< 1"},
      {"smiles": "CC(C)Cc1ccc(-c2nc(-c3ccc(CN4CCC(Cc5ccccc5)(C(=O)O)CC4)cc3)no2)cc1Cl", "note": "[Example 24, 4-Benzyl-1-[4-{5-(3-chloro-4-isobutylphenyl)-[1,2,4]-oxadiazol-3-yl]benzyl}-piperidine-4-carboxylic acid tert-butyl amine salt]", "EC50": "< 10"},
      {"smiles": "COCC1(C(=O)O)CCN(Cc2ccc(-c3noc(-c4ccc(OC(C)C)c(Cl)c4)n3)cc2)CC1", "note": "[Example 57, 1-{4-[5-(3-Chloro-4-isopropoxy-phenyl)-[1,2,4]-oxadiazol-3-yl]-benzyl}-4-methoxymethyl-piperidine-4-carboxylic acid tert-butyl amine salt]", "EC50": "< 10"},
      {"smiles": "CC(C)Cc1ccc(-c2nc(-c3ccc(CN4CCC(COC5CCCC5)(C(=O)O)CC4)cc3)no2)cc1Cl", "note": "[Example 61, 1-{4-[5-(3-Chloro-4-isobutyl-phenyl)-[1,2,4]-oxadiazol-3-yl]-benzyl}-4-cyclopentyloxymethyl-piperidine-4-carboxylic acid tert-butyl amine salt]", "EC50": "< 1"}
    ]}
  ]
}
